The record followed here is patent US20240083846A1, “SMAC MIMETICS FOR TREATMENT OF CANCER, PROCESS FOR PREPARATION AND PHARMACEUTICAL COMPOSITION THEREOF” (COUNCIL OF SCIENTIFIC & INDUSTRIAL RESEARCH, priority 2020, published 2024).

The subject of data set [1] is PC-3 cells. In words: SRB cytotoxicity assay, PC-3. The class given is cell-based. As to conditions: Homo sapiens, Prostrate. The method, then:
(§1) In vitro cytotoxic activities of different compounds were assessed by using standard SRB assay in different cells. The absorbance of the treated and untreated cells was measured on a multi-well scanning spectrophotometer (Epoch Microplate Reader, Biotek, USA) at a wavelength of 510 nm. Percent growth inhibition was calculated by using the formula […].
(§2) SMAC mimetics promotes tumor cell selective cytotoxic effects. SW 620, HT 29, HCT 116 and VERO cells were treated with series of Smac mimetics at 10 μM dose for 48 hours and cytotoxicity was measured by SRB assay. As C6 had shown robust in-vitro cytotoxic effect against tumor cells but not to VERO cells, we determined IC50 value of C6 against different types of cancer cell lines. ICso values are represented in Table 2.

Data set [2] concerns MCF-7 cells. As to the kind of experiment: SRB cytotoxicity assay, MCF-7. The class given is cell-based. Conditions: Homo sapiens, MCF7, Breast. The method, then:
as §1, §2

Data set [3] has as its system XIAP and cIAP1 protein expression. In words: Immunoblots from tumor tissues (in vivo target engagement). As to conditions: vs vehicle treated tumors. More on the design: species or system mice.
For data set [4], the system named is HCT-116 xenograft. As to the kind of experiment: HCT-116 xenograft model. The class given is in vivo, nude Crl: CD1-Foxnlnu mice. As to conditions: vs control. The source says: (§3) All the animals were maintained in a pathogen-free facility under a day—night cycle.
For data set [5], the system named is A172 cells. As to the kind of experiment: SRB cytotoxicity assay, A172. Format: cell-based. As to conditions: Homo sapiens, A 172, Brain. The method, then:
as §1, §2
On the technique in general: Sulforhodamine B stains cellular protein and so reports cell mass.

The target in data set [6] is XIAP BIR3 protein (Homo sapiens, UniProt P98170). In words: Fluorescence polarization competition binding assay, XIAP BIR3. As to conditions: displacement of AVPIAQK(FAM)-OH, fluorescence polarization; read-out: Target Binding BIR3 Ki. The method, then: The SMAC mimetics 1-9 were tested for their ability to displace the fluorescent labeled peptide AVPIAQK(FAM)-OH from XIAP BIR2 or XIAP BIR3 protein. The dose dependent binding experiment were then carried out by sequentially increasing the concentration of SMAC mimetic compounds at constant concentration of fluorescent labeled peptide and XIAP BIR2 or XIAP BIR3 protein. IC5- values were determined from the plot draw by prism software using nonlinear least-squares analysis. The Ki values of the SMAC mimetics were calculated which was based upon the measured IC50 values, the Kd value between tracer AVPIAQK(FAM)-OH and XIAP BIR2 or XIAP BIR3 complex, and the concentrations of the protein and tracer in the competition assay by using the web based program which are freely accessed at http://sw16.im.med.umich.edu/software/calc_ki/.In-silico.
Binding isotherms were plotted between FP reading versus log values of protein concentration in nM. The data was analysed using GraphPad prism and Kd values were determined using Boltzmann-sigmoidal non-linear regression curve fitting.
(In fluorescence polarisation assays a small probe gives low polarisation when free and higher when bound to something large.)

In data set [7] the test system is CT26 cells. As to the kind of experiment: SRB cytotoxicity assay, CT26. The class given is cell-based. As to conditions: Colon (Mouse). The method, then: as §1, §2
For data set [8] the following is noted: xenograft studies, FIG. 7 and FIG. 8. The method, then:
Mice were randomly assigned to groups by a blinded independent investigator. Throughout the study, the tumor was measured with an electronic digital caliper at a regular interval, and the tumor volume was calculated using standard formula V=Π/6×a2×b, where ‘a’ is the short and ‘b’ is the long tumor axis. At the end of the experiment, mice were sacrificed, and subcutaneous tumors were dissected for further studies. Parts of harvested tumors were minced into small pieces with sterile forceps and scissors and homogenized for lysate preparation.

Data set [9] is described as follows: in vivo. Conditions: mouse.
Experimental: SIF, SGF and other stability studies were performed by following standard protocol. […] Mice were administered their respective doses according to body weight by intravenous (lateral vein), Subcutaneous route and Oral respectively. Blood samples were collected at 0.083, 0.25, 0.5, 0.75, 1, 2, 4, 8, 12, 24 and 48 hours. Plasma was separated and processed for analysis. For pharmacokinetic analysis, plasma concentration versus time data were plotted and analyzed by non-compartmental analysis method using WinNonlin (Pharsight, Mountain View, CA) software.
Data set [10] relates to TRAIL mediated tumor cell cytotoxic response. As to the kind of experiment: Combination cytotoxicity with DR5 ligand TRAIL. Conditions: in vitro, FIG. 4. The class given is cell-based.
Data set [11] relates to K562 cells. As to the kind of experiment: SRB cytotoxicity assay, K562. Format: cell-based. As to conditions: Homo sapiens, Leukemia. The method, then:
as §1, §2

Data set [12] concerns HT29 cells. As to the kind of experiment: SRB cytotoxicity assay, HT29. The class given is cell-based. Conditions: Homo sapiens, HT-29. The method, then:
as §1

In data set [13] the test system is SW 620 cells. In words: SRB cytotoxicity assay, SW 620. The class given is cell-based. As to conditions: Homo sapiens, SW-620. The method, then: as §1
Data set [14] has as its system MDAMB231 cells. As to the kind of experiment: SRB cytotoxicity assay, MDAMB231. The class given is cell-based. As to conditions: Homo sapiens, MDA-MB-231, Breast. The method, then:
as §1, §2

Data set [15] concerns SW-620 xenograft. In words: Cisplatin resistant SW-620 xenograft model. The class given is in vivo, nude Crl: CD1-Foxnlnu mice. As to conditions: FIG. 7.
Text: as §3

The nature of data set [16]: SRB cytotoxicity assay, VERO. The class given is cell-based, monkey. As to conditions: monkey, VERO cells; 10 μM, 48 hours, SRB assay; read-out: In vitro cytotoxicity at 10 μM dose, VERO (percent growth inhibition). The method, then: as §1

Sequence of XIAP BIR3 protein (P98170 241-356 limits assumed): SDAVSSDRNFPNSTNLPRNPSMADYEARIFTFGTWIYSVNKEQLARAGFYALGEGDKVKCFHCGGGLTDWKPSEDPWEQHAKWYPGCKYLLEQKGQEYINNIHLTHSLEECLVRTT

For the molecule `CC[C@H](C)[C@H](NC(=O)[C@@H]1CC[C@H](c2ccc(C)o2)N1C(=O)[C@@H](NC(=O)[C@H](C)NC)C(C)C)C(=O)NC(c1ccccc1)c1ccccc1` [Compound 6, (2S,5R)-N-((2S,3S)-1-(benzhydrylamino)-3-methyl-1-oxopentan-2-yl)-1-((S)-3-methyl-2-((S)-2-(methylamino)propanamido)butanoyl)-5-(5-methylfuran-2-yl)pyrrolidine-2-carboxamide], the IC50 (usually the concentration at which inhibition is half-maximal) in data set [1] was 6.02 µM; in data set [2], 5.02 µM; in data set [5], 6.88 µM; in [7], over 10 µM; in data set [11] it was 9.1 µM; in [12] (Colon, HT29) it was 6.66 µM. Moreover, the IC50 in [13] (Colon, SW620) turned out to be 4.31 µM; in [14], 4.15 µM. Moreover, in [3], the “XIAP and cIAP1 protein expression in tumors” value was “reduced XIAP and cIAP1 protein expression”. Moreover, the Xenograft tumor volume result in [4] (oral administration) and in [4] (subcutaneous administration) was “markedly reduced” each time. For the same molecule, the Xenograft tumor weight result in data set [4] (oral administration) and in [4] (subcutaneous administration) was “markedly reduced” each time. The Ki (commonly a dissociation constant, usually derived from enzyme kinetics or from competition with a known ligand) in data set [6] amounted to 0.58 µM. In data set [8], the “Body weight / tolerability during course of treatment” value is on record as “no weight loss was observed”. Moreover, the half-life (as a rule, the time needed for the level to fall by half in the phase considered) in [9] (iv, 4 mg/kg) is 0.19 ± 0.05 h; in data set [9] (po, 30 mg/kg) it was 3.84 ± 1.8 h; in [9] (sc, 30 mg/kg), 2.1 ± 0.15 h. For the same molecule, in [10], the “Sensitization of TRAIL mediated tumor cell cytotoxic response” value is recorded as “robustly sensitizes”. Further, the inhibition – broadly, the relative decrease from the control value, in per cent – at 10 µM in [12] (10 μM, 48 hours, SRB assay, read-out: In vitro cytotoxicity at 10 μM dose, HT29 (percent growth inhibition)) is 65 ± 3.6%; in data set [13] (10 μM, 48 hours, SRB assay, read-out: In vitro cytotoxicity at 10 μM dose, SW 620 (percent growth inhibition)) it was 59.27 ± 0.1%. Moreover, in data set [15], the “In vivo anti tumor efficacy” value is given as “potent anti tumor efficacy”. Also, the inhibition at 48 h, 10 μM in data set [16] is 18.4 ± 2.1%.
